Patent publication US20250387449A1, “PHARMACEUTICAL COMBINATION COMPRISING AN IBAT INHIBITOR AND A BILE ACID BINDER” (Albireo AB, priority 2010, published 2025)

Columns and labels:
[1] = Phase IIb placebo-controlled dose-finding study in patients with Chronic Idiopathic Constipation: adverse events; type: in vivo, human; conditions: 56 days treatment
Protocol: A Phase IIb, Double-blind, Randomized, Placebo-controlled, Multi-centre, Dose-finding, Efficacy and Safety Study of a Range of Doses of the compound of Example 14 in about 200 patients with Chronic Idiopathic Constipation, where patients were treated for 56 days, was performed. The patients were males or non-pregnant females ≥20 years of age and ≤80 years of age, having a body mass index (BMI) ≥18.5 but <35.
All patients with adverse events of diarrhea and abdominal pain type related to treatment with the compound of Example 14 are presented in table 2.

[2] = as above; type: in vivo, human; conditions: Example 14 plus colonic delivery of 400 mg colesevelam 3 times a day

Structure (SMILES): CCCCC1(CCCC)CN(c2ccccc2)c2cc(SC)c(OCC(=O)N[C@@H](C(=O)NCC(=O)O)c3ccccc3)cc2S(=O)(=O)C1 [Example 14, 1,1-Dioxo-3,3-dibutyl-5-phenyl-7-methylthio-8-(N—{(R)-1′-phenyl-1′-[N′-(carboxymethyl)-carbamoyl]methyl}carbamoylmethoxy)-2,3,4,5-tetrahydro-1,5-benzothiazepine]
- Abdominal Pain, % of Population ([1]; 5 mg): 10.4 % of Population
- Abdominal Pain, Number of Patients ([1]; 5 mg): 5
- Diarrhoea, % of Population ([1]; 5 mg): 8.3 % of Population
- Diarrhoea, Number of Patients ([1]; 5 mg): 4
- Abdominal Pain, % of Population ([1]; 10 mg): 10.6 % of Population
- Abdominal Pain, Number of Patients ([1]; 10 mg): 5
- Diarrhoea, % of Population ([1]; 10 mg): 10.6 % of Population
- Diarrhoea, Number of Patients ([1]; 10 mg): 5
- Abdominal Pain, % of Population ([1]; 15 mg): 27.1 % of Population
- Abdominal Pain, Number of Patients ([1]; 15 mg): 13
- Diarrhoea, % of Population ([1]; 15 mg): 16.7 % of Population
- Diarrhoea, Number of Patients ([1]; 15 mg): 8
- bile acid dependent side effects generated from colon (diarrhoea, abdominal pain) [2]: effectively block bile acid side effects generated from the colon
